In US20250304587A1, “WEE1 INHIBITOR, PREPARATION THEREFOR AND USE THEREOF” (JIANGSU TASLY DIYI PHARMACEUTICAL CO., LTD., priority 2022, published 2025):

Legend:
BxPC3 cells = experiment: Cell Titer-Glo anti-proliferation, BxPC3 cells; format: cell-based, human; settings: 3 days, read-out: Anti-proliferative activity BxPC3 (IC50 class)
Experimental: (§1) A. Evaluation of the Anti-Proliferative Effect of Compounds on BxPC3, HT-29 and OVCAR-3 Cells by the Cell Titer-Glo Method
(§2) Compound solutions of different concentration gradients were prepared. […] The cell growth group without compound was used as a positive control (maximum signal control) and the medium was used as a negative control (minimum signal control), while ensuring that the final level of DMSO in each reaction well was 0.2%. After removing the medium from the 384-well plate, 25 μl of the configured compound at different concentrations was transferred into the well plate and the compound and cells were incubated in the cell incubator at 37° C. with 5% CO2 for 3 days.
(§3) The 384-well plates were removed from the cell incubator and allowed to equilibrate for 1 h to room temperature. 25 μl of Cell Titer-Glo assay was added to each well, lysed on a shaker for 2 min and then read out (Luminescence) using a BMG PHERAStar after 10 min incubation. Calculate the inhibition rate from the luminescence signal.
(§4) to calculate the rate of inhibition of the cells by different concentrations of the compounds. The IC50 of the compound on cell activity inhibition was calculated by fitting a log(inhibitor) vs. response-Variable slope model to GraphPad Prism 6. The fitted equation was: Y=Bottom+(Top-Bottom)/(1+10^((Log IC50−X)*HillSlope)), where Y represents the rate of inhibition and X represents the concentration of the known compound after Log.

HT-29 cells = experiment: Cell Titer-Glo anti-proliferation, HT-29 cells; format: cell-based, human; settings: 3 days, read-out: Anti-proliferative activity HT-29 (IC50 class)
Experimental: as §1, §2, §3, §4

OVCAR-3 cells = experiment: Cell Titer-Glo anti-proliferation, OVCAR-3 cells; format: cell-based; settings: 3 days, read-out: Anti-proliferative activity OVCAR-3 (IC50 class)
Experimental: as §1, §2, §3, §4

SMILES	IC50 (BxPC3 cells)	IC50 (HT-29 cells)	IC50 (OVCAR-3 cells)
C=CCn1c(=O)c2cnc(Nc3ccc(N4CCC(N5CCN(C)CC5)C(F)C4)cc3)nc2n1-c1ccc2c(n1)C(C)(O)C1(CC1)C2 (mixture of isomers) [Compound 14]	1 to 2 µM	0.1 to 1 µM	0.1 to 1 µM
C=CCn1c(=O)c2cnc(Nc3ccc(N4CCN(C)CC4)c(C)c3)nc2n1-c1ccc2c(n1)C(C)(O)C1(CC2)CC1 (racemic) [Compound 8]	1 to 2 µM	0.1 to 1 µM	1 to 2 µM
C=CCn1c(=O)c2cnc(Nc3ccc4c(c3)CN(C)CC4(C)C)nc2n1-c1ccc2c(n1)C(C)(O)C1(CC1)C2 (racemic) [Compound 9]	> 10 µM	1 to 2 µM	0.1 to 1 µM
C=CCn1c(=O)c2cnc(Nc3ccc(N4CCN(C)CC4)c(C)c3)nc2n1-c1ccc2c(n1)C(C)(O)C1(CC1)C2 (racemic) [Compound 10]	2 to 5 µM	1 to 2 µM	0.1 to 1 µM
C=CCn1c(=O)c2cnc(Nc3ccc(N4CCC(N(C)C)CC4)cc3)nc2n1-c1ccc2c(n1)C(C)(O)C1(CC1)C2 (racemic) [Compound 12]	2 to 5 µM	0.1 to 1 µM	0.1 to 1 µM
C=CCn1c(=O)c2cnc(Nc3ccc(N4CCN(C)CC4)cc3)nc2n1-c1ccc2c(n1)C(O)(CC)C1(CC1)C2 (racemic) [Compound 18]	2 to 5 µM	0.1 to 1 µM	2 to 5 µM
C=CCn1c(=O)c2cnc(Nc3ccc(N4CCN(C)CC4)c(CO)c3)nc2n1-c1ccc2c(n1)C(C)(O)C1(CC1)C2 (racemic) [Compound 19]	2 to 5 µM	2 to 5 µM	2 to 5 µM
C=CCn1c(=O)c2cnc(Nc3ccc(N4CCOCC4)cc3)nc2n1-c1ccc2c(n1)C(O)(CC)C1(CC1)C2 (racemic) [Compound 24]	1 to 2 µM	1 to 2 µM	1 to 2 µM
C=CCn1c(=O)c2cnc(Nc3ccc(N4CC5CCC(C4)N5C)cc3)nc2n1-c1ccc2c(n1)C(O)(CC)C1(CC1)C2 (racemic) [Compound 25]	1 to 2 µM	1 to 2 µM	0.1 to 1 µM
C=CCn1c(=O)c2cnc(Nc3ccc(N4CCC5(CCN(C)CC5)CC4)cc3)nc2n1-c1ccc2c(n1)C(O)(CC)C1(CC1)C2 (racemic) [Compound 27]	0.1 to 1 µM	0.1 to 1 µM	0.1 to 1 µM
C=CCn1c(=O)c2cnc(Nc3ccc(N4CCN(C)CC4)cc3)nc2n1-c1ccc2c(c1)C(O)(CC)C1(CC1)C2 (racemic) [Compound 29]	2 to 5 µM	1 to 2 µM	0.1 to 1 µM
C=CCn1c(=O)c2cnc(Nc3ccc(N4CC5CC(C4)N5C)cc3)nc2n1-c1ccc2c(n1)C(O)C1(CC2)CC1 (racemic) [Compound 34]	1 to 2 µM	0.1 to 1 µM	1 to 2 µM
C=CCn1c(=O)c2cnc(Nc3ccc(N4C[C@H]5CN(C)C[C@H]5C4)cc3)nc2n1-c1ccc2c(n1)C(C)(O)C1(CC2)CC1 (mixture of isomers) [Compound 43]	0.1 to 1 µM	0.1 to 1 µM	0.1 to 1 µM
C=CCn1c(=O)c2cnc(Nc3ccc(N4CCC5(CC4)CN(C)C5)cc3)nc2n1-c1ccc2c(n1)C(C)(O)C1(CC2)CC1 (racemic) [Compound 47]	> 10 µM	> 10 µM	> 10 µM
C=CCn1c(=O)c2cnc(Nc3ccc(N4CC5CC(C4)N5C)c(OC)c3)nc2n1-c1ccc2c(n1)C(O)C1(CC2)CC1 (racemic) [Compound 49]	2 to 5 µM	2 to 5 µM	2 to 5 µM
C=CCn1c(=O)c2cnc(Nc3ccc(N4CCN(C)CC4)cc3)nc2n1-c1ccc2c(n1)C(C)(O)C1(CC1)C2 (single isomer, unassigned) [Compound 3a]	1 to 2 µM	1 to 2 µM	1 to 2 µM
C=CCn1c(=O)c2cnc(Nc3ccc(N4CCN(C)CC4)cc3)nc2n1-c1ccc2c(n1)C(C)(O)C1(CC2)CC1 (single isomer, unassigned) [Compound 6b]	1 to 2 µM	0.1 to 1 µM	
C=CCn1c(=O)c2cnc(Nc3ccc(N4CCC(N(C)C)C(F)C4)cc3)nc2n1-c1ccc2c(n1)C(C)(O)C1(CC1)C2 (single isomer, unassigned) [Compound 20a]	1 to 2 µM	1 to 2 µM	1 to 2 µM
C=CCn1c(=O)c2cnc(Nc3ccc(N4CCC(N(C)C)[C@@H](F)C4)cc3)nc2n1-c1ccc2c(n1)[C@@](C)(O)C1(CC1)C2 (single isomer, unassigned) [Compound 20b]	1 to 2 µM	1 to 2 µM	1 to 2 µM

SMILES	IC50 (BxPC3 cells)	IC50 (HT-29 cells)	IC50 (OVCAR-3 cells)
C=CCn1c(=O)c2cnc(Nc3ccc(N4CC5CC(C4)N5C4CCC4)cc3)nc2n1-c1ccc2c(n1)C(O)(CC)C1(CC1)C2 (single isomer, unassigned) [Compound 22a]	1 to 2 µM	0.1 to 1 µM	0.1 to 1 µM
C=CCn1c(=O)c2cnc(Nc3ccc(N4CCN(C)CC4)c(C)c3)nc2n1-c1ccc2c(n1)[C@](C)(O)C1(CC2)CC1 (single isomer, unassigned) [Compound 23b]	0.1 to 1 µM	0.1 to 1 µM	0.1 to 1 µM
C=CCn1c(=O)c2cnc(Nc3ccc(N4C[C@@H](C)O[C@@H](C)C4)cc3)nc2n1-c1ccc2c(n1)[C@](O)(CC)C1(CC1)C2 (single isomer, unassigned) [Compound 31a]	5 to 10 µM	2 to 5 µM	5 to 10 µM
C=CCn1c(=O)c2cnc(Nc3ccc(N4C[C@@H](C)O[C@@H](C)C4)cc3)nc2n1-c1ccc2c(n1)[C@@](O)(CC)C1(CC1)C2 (single isomer, unassigned) [Compound 31b]	2 to 5 µM	2 to 5 µM	1 to 2 µM
C=CCn1c(=O)c2cnc(Nc3ccc(N4CC5CC(C4)N5C)cc3)nc2n1-c1ccc2c(n1)C(O)C1(CC2)CC1 (single isomer, unassigned) [Compound 34a]		0.1 to 1 µM	2 to 5 µM
C=CCn1c(=O)c2cnc(Nc3ccc(N4CC5CC(C4)N5C)cc3)nc2n1-c1ccc2c(n1)[C@H](O)C1(CC2)CC1 (single isomer, unassigned) [Compound 34b]	0.1 to 1 µM	0.1 to 1 µM	1 to 2 µM
C=CCn1c(=O)c2cnc(Nc3ccc(N4CC5CC(C4)N5C(C)C)cc3)nc2n1-c1ccc2c(n1)[C@](C)(O)C1(CC2)CC1 (single isomer, unassigned) [Compound 35a]	0.1 to 1 µM	0.1 to 1 µM	0.1 to 1 µM
C=CCn1c(=O)c2cnc(Nc3ccc(N4CC5CC(C4)N5C(C)C)cc3)nc2n1-c1ccc2c(n1)[C@@](C)(O)C1(CC2)CC1 (single isomer, unassigned) [Compound 35b]	0.1 to 1 µM	0.1 to 1 µM	0.1 to 1 µM
C=CCn1c(=O)c2cnc(Nc3ccc(N4CC5CC(C4)N5C(C)C)cc3)nc2n1-c1ccc2c(n1)C(O)(CC)C1(CC2)CC1 (single isomer, unassigned) [Compound 36a]	0.1 to 1 µM	0.1 to 1 µM	0.1 to 1 µM
C=CCn1c(=O)c2cnc(Nc3ccc(N4CC5CC(C4)N5C(C)C)cc3)nc2n1-c1ccc2c(n1)[C@](O)(CC)C1(CC2)CC1 (single isomer, unassigned) [Compound 36b]	0.1 to 1 µM	0.1 to 1 µM	0.1 to 1 µM
C=CCn1c(=O)c2cnc(Nc3ccc(N4CC5CC(C4)N5C(C)C)cc3)nc2n1-c1ccc2c(n1)C(O)C1(CC2)CC1 (single isomer, unassigned) [Compound 39a]	0.1 to 1 µM	0.1 to 1 µM	0.1 to 1 µM
C=CCn1c(=O)c2cnc(Nc3ccc(N4CCC(N(C)C)CC4)c(C)c3)nc2n1-c1ccc2c(n1)C(O)C1(CC2)CC1 (single isomer, unassigned) [Compound 41a]	1 to 2 µM	0.1 to 1 µM	0.1 to 1 µM
C=CCn1c(=O)c2cnc(Nc3ccc(N4CCC(N(C)C)CC4)c(C)c3)nc2n1-c1ccc2c(n1)[C@](C)(O)C1(CC1)C2 (single isomer, unassigned) [Compound 42a]	0.1 to 1 µM	0.1 to 1 µM	0.1 to 1 µM
C=CCn1c(=O)c2cnc(Nc3ccc(N4CCC(N(C)C)CC4)c(C)c3)nc2n1-c1ccc2c(n1)[C@@](C)(O)C1(CC1)C2 (single isomer, unassigned) [Compound 42b]	0.1 to 1 µM	0.1 to 1 µM	0.1 to 1 µM
C=CCn1c(=O)c2cnc(Nc3ccc(N4CC5CN(C)CC5C4)cc3)nc2n1-c1ccc2c(n1)C(C)(O)C1(CC2)CC1 (single isomer, unassigned) [Compound 43a]	0.1 to 1 µM	0.1 to 1 µM	0.1 to 1 µM
C=CCn1c(=O)c2cnc(Nc3ccc(N4C[C@H]5CN(C)C[C@H]5C4)cc3)nc2n1-c1ccc2c(n1)[C@@](C)(O)C1(CC2)CC1 (single isomer, unassigned) [Compound 43b]	0.1 to 1 µM	0.1 to 1 µM	0.1 to 1 µM
C=CCn1c(=O)c2cnc(Nc3ccc(N4CCN(C)CC4)cc3)nc2n1-c1ccc2c(n1)N(CC)CC21CCC1 [Compound 16]	1 to 2 µM	0.1 to 1 µM	
C=CCn1c(=O)c2cnc(Nc3ccc(N4CCC5(CCN(C)CC5)CC4)cc3)nc2n1-c1ccc2c(n1)[C@](C)(O)C1(CC2)CC1 [Compound 44b]	0.1 to 1 µM		
C=CCn1c(=O)c2cnc(Nc3ccc(N4CC5CC(C4)N5CC)cc3)nc2n1-c1ccc2c(n1)[C@](C)(O)C1(CC2)CC1 [Compound 51b]	0.1 to 1 µM		
